Source: patent US10047105B2, “Gyrase inhibitors” (Merck Sharp & Dohme Corp., priority 2009, dated 2018)
Converted amounts (≈) assume the structure as drawn.

How the values were obtained:
Type in all cases: cell-based
[1] = test system: S. aureus ATCC 13709 (SA + serum); test: MIC, S. aureus + 20% mouse serum; conditions: Staphylococcus aureus, ATCC13709; S. aureus + serum (20% mouse serum); read-out: Antibacterial Potency MIC
E. coli 8 ATCC 25922 = test: MIC, E. coli 8 (wt); conditions: Escherichia coli, ATCC25922; E. coli (wt); read-out: Antibacterial Potency MIC
A. baumannii ATCC 19606 = test: MIC, A. baumannii; conditions: Acinetobacter baumannii, ATCC19606, read-out: Antibacterial Potency MIC
[2] = test system: E. coli imp Benson BAS849; test: microbe, parasite or virus in culture; conditions: Escherichia coli, read-out: Antibacterial Potency MIC
K. pneumoniae 101 = test: MIC, K. pneumoniae 101; conditions: Klebsiella pneumoniae, read-out: Antibacterial Potency MIC
[3] = test system: E. coli ATCC 25922 (EC8 + serum); test: MIC, E. coli + 20% mouse serum; conditions: Escherichia coli, ATCC25922; E. coli + serum (20% mouse serum); read-out: Antibacterial Potency MIC
H. influenzae ATCC 49247 = test: MIC, H. influenzae; conditions: Haemophilus influenzae, ATCC49247, read-out: Antibacterial Potency MIC
[4] = test system: E. coli Δtolc BW25113 Δtolc; test: microbe, parasite or virus in culture; conditions: Escherichia coli, BW25113, read-out: Antibacterial Potency MIC
K. pneumoniae 11 = test: MIC, K. pneumoniae 11; conditions: Klebsiella pneumoniae, read-out: Antibacterial Potency MIC
P. aeruginosa ATCC 15692 = test: MIC, P. aeruginosa (wt); conditions: Pseudomonas aeruginosa, ATCC15692, read-out: Antibacterial Potency MIC
S. aureus ATCC 13709 = test: MIC, antibacterial potency, S. aureus; conditions: Staphylococcus aureus, ATCC13709; S. aureus
S. pneumoniae ATCC 51916 = test: MIC, S. pneumoniae; conditions: Streptococcus pneumoniae, ATCC51916; S. pneumoniae; read-out: Antibacterial Potency MIC

Row | SMILES | MIC [1] | MIC (E. coli 8 ATCC 25922) | MIC (A. baumannii ATCC 19606) | MIC [2] | MIC (K. pneumoniae 101) | MIC [3] | MIC (H. influenzae ATCC 49247) | MIC [4] | MIC (K. pneumoniae 11) | MIC (P. aeruginosa ATCC 15692) | MIC (S. aureus ATCC 13709) | MIC (S. pneumoniae ATCC 51916)
1 | CCc1[nH]c2nc(Sc3cnc4ccc[n+]([O-])c4c3)nc(N3CC[C@@H](N)C3)c2c1Cl [701,008] | ≤ 0.5 µg/mL | 4 µg/mL (≈ 9.05 µM) | 8 µg/mL (≈ 18.1 µM) | 1 µg/mL (≈ 2.26 µM) | ≤ 0.5 µg/mL | 2 µg/mL | 2 µg/mL (≈ 4.53 µM) | ≤ 0.5 µg/mL | 32 µg/mL (≈ 72.4 µM) | 16 µg/mL (≈ 36.2 µM) | ≤ 0.5 µg/mL | 1 µg/mL (≈ 2.26 µM)
2 | CCc1[nH]c2nc(Sc3cnc4ccc[n+]([O-])c4c3)nc(N3CC4C(N)C4C3)c2c1Cl (stereo not drawn) [compound 701009] | ≤ 0.5 µg/mL | 2 µg/mL (≈ 4.41 µM) | 4 µg/mL (≈ 8.81 µM) | ≤ 0.5 µg/mL | ≤ 0.5 µg/mL | 4 µg/mL | 2 µg/mL (≈ 4.41 µM) | ≤ 0.5 µg/mL | 32 µg/mL (≈ 70.5 µM) | 4 µg/mL (≈ 8.81 µM) | ≤ 0.5 µg/mL | ≤ 0.5 µg/mL
